# How the values were obtained:
# E. coli ATCC25922 = test: Bacterial susceptibility testing, MIC by broth microdilution (CLSI); type: cell-based; details: Escherichia coli, ATCC25922, broth microdilution, 35° C., 18-24 h; read-out: MIC E. coli ATCC25922
# Outline: (§1)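 Broth microdilution per CLSI in cation-adjusted Mueller-Hinton broth, inoculum 3×10^5–7×10^5 CFU/mL, 2-fold serial drug dilutions in DMSO. Incubated in ambient air at 35° C for 18-24 h. MIC taken as lowest concentration preventing visible growth (OD600 nm<0.05).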
# K. pneumoniae ATCC13883 = test: as above; type: cell-based; details: Klebsiella pneumoniae, ATCC13883, broth microdilution, 35° C., 18-24 h; read-out: MIC K. pneumoniae ATCC13883
# Outline: as §1
# P. aeruginosa 209 PAO1 = test: as above; type: cell-based; details: Pseudomonas aeruginosa, PAO1, broth microdilution, 35° C., 18-24 h; read-out: MIC P. aeruginosa 209 PAO1
# Outline: as §1
# P. aeruginosa ATCC27835 = test: as above; type: cell-based; details: Pseudomonas aeruginosa, ATCC27835, broth microdilution, 35° C., 18-24 h; read-out: MIC P. aeruginosa ATCC27835
# Outline: as §1
# E. coli LpxC = E. coli LpxC (Escherichia coli, UniProt P0A725); test: LpxC Binding Assay (Rapid Fire MS assay); type: biochemical
# Chain of E. coli LpxC (P0A725 whole entry): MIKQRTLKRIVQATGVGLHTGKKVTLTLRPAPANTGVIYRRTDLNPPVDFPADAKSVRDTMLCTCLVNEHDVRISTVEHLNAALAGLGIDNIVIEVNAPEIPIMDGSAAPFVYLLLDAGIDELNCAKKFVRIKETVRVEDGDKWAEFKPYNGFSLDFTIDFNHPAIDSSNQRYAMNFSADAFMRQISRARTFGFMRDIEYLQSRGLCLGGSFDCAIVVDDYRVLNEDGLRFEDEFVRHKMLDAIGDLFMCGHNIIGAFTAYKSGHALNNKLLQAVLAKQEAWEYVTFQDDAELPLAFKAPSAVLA
# Description: (§2) IC50 values against E. coli and P. aeruginosa LpxC are determined using a Rapid Fire MS assay as previously described J. Med. Chem. 2012, 55, 1662-1670.
# P. aeruginosa LpxC = biological target: T1, P. aeruginosa LpxC (Pseudomonas aeruginosa, UniProt P47205); test: LpxC Binding Assay (Rapid Fire MS assay); type: biochemical
# T1 sequence (P47205 1-303): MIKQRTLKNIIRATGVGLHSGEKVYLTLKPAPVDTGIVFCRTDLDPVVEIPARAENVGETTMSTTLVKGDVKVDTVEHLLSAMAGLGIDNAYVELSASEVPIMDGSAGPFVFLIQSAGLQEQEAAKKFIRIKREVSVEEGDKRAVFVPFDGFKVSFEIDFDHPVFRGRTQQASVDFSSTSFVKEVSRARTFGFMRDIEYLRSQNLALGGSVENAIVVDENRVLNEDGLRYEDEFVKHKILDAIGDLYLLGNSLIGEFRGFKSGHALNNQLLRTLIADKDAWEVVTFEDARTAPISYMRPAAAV
# Description: as §2
# K. pneumoniae LpxC = K. pneumoniae LpxC (Klebsiella pneumoniae subsp. pneumoniae, UniProt A6T4N9); test: LpxC Binding Assay (Rapid Fire MS assay); type: biochemical
# Chain of K. pneumoniae LpxC (A6T4N9 whole entry): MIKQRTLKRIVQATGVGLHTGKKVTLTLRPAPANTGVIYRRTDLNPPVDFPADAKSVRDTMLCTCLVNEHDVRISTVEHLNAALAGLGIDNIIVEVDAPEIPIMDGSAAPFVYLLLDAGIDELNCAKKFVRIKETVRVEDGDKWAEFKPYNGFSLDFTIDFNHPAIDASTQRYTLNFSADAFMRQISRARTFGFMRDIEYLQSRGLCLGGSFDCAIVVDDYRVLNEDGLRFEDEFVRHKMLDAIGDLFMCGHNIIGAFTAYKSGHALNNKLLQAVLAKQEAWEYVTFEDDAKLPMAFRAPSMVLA
SMILES,MIC (E. coli ATCC25922),MIC (K. pneumoniae ATCC13883),MIC (P. aeruginosa 209 PAO1),MIC (P. aeruginosa ATCC27835),IC50 (E. coli LpxC),IC50 (P. aeruginosa LpxC),IC50 (K. pneumoniae LpxC)
C[C@H](O)c1nccn1[C@@H](/C=C(\F)c1ccc(-c2ccc(OCC(N)CO)cc2)cc1)CO (mixture of isomers) [Compound 11],4 mg/L,16 mg/L,1 mg/L,2 mg/L,2.7 nM,31.3 nM,4 nM
"C[C@H](O)c1nccn1[C@@H](/C=C/c1ccc(-c2ccc(OCC(N)CO)cc2)cc1)CCO (mixture of isomers) [Compound 19, (3R,E)-5-(4′-(2-amino-3-hydroxypropoxy)-[1,1′-biphenyl]-4-yl)-3-(2-((S)-1-hydroxyethyl)-1H-imidazol-1-yl)pent-4-en-1-ol]",8 mg/L,64 mg/L,4 mg/L,4 mg/L,5.1 nM,62.3 nM,8 nM
"COC(CN)COc1ccc(-c2ccc(/C=C/[C@@H](CO)n3ccnc3[C@H](C)O)cc2)cc1 (mixture of isomers) [Compound 27, (2S,E)-4-(4′-(3-amino-2-methoxypropoxy)-[1,1′-biphenyl]-4-yl)-2-(2-((S)-1-hydroxyethyl)-1H-imidazol-1-yl)but-3-en-1-ol]",8 mg/L,32 mg/L,4 mg/L,4 mg/L,2.9 nM,41.2 nM,6.2 nM
"C[C@H](O)c1nccn1[C@@H](/C=C(\F)c1ccc(-c2ccc(OCC(O)CN)cc2)cc1)CO (single isomer, unassigned) [Compound 30, (S,Z)-4-(4′-((R)-3-amino-2-hydroxypropoxy)-[1,1′-biphenyl]-4-yl)-4-fluoro-2-(2-((S)-1-hydroxyethyl)-1H-imidazol-1-yl)but-3-en-1-ol; or (S,Z)-4-(4′-((S)-3-amino-2-hydroxypropoxy)-[1,1′-biphenyl]-4-yl)-4-fluoro-2-(2-((S)-1-hydroxyethyl)-1H-imidazol-1-yl)but-3-en-1-ol]",16 mg/L,32 mg/L,8 mg/L,8 mg/L,5 nM,79.5 nM,7.6 nM
"C[C@H](O)c1nccn1[C@@H](/C=C/c1ccc(-c2ccc(OC3CCN(CCO)CC3)cc2)cc1)CO [Compound 17, (S,E)-2-(2-((S)-1-hydroxyethyl)-1H-imidazol-1-yl)-4-(4′-((1-(2-hydroxyethyl)piperidin-4-yl)oxy)-[1,1′-biphenyl]-4-yl)but-3-en-1-ol]",4 mg/L,16 mg/L,4 mg/L,4 mg/L,4.2 nM,66.4 nM,6.3 nM
"C[C@H](O)c1nccn1[C@@H](/C=C/c1ccc(-c2ccc(OC3CCN(CCO)CC3)cc2)cc1)CCO [Compound 18, (R,E)-3-(2-((S)-1-hydroxyethyl)-1H-imidazol-1-yl)-5-(4′-((1-(2-hydroxyethyl)piperidin-4-yl)oxy)-[1,1′-biphenyl]-4-yl)pent-4-en-1-ol]",8 mg/L,16 mg/L,4 mg/L,4 mg/L,3.6 nM,50.1 nM,5.4 nM
"C[C@H](O)c1nccn1[C@@H](/C=C/c1ccc(-c2ccc(OC[C@@H](O)CO)cc2)cc1)CO [Compound 24, (S)-3-((4′-((S,E)-4-hydroxy-3-(2-((S)-1-hydroxyethyl)-1H-imidazol-1-yl)but-1-en-1-yl)-[1,1′-biphenyl]-4-yl)oxy)propane-1,2-diol]",2 mg/L,8 mg/L,2 mg/L,2 mg/L,0.5 nM,17.5 nM,1.1 nM
"C[C@H](O)c1nccn1[C@@H](/C=C/c1ccc(-c2ccc(OC[C@@H](O)CN(C)C)cc2)cc1)CO [Compound 26, (S,E)-4-(4′-((S)-3-(dimethylamino)-2-hydroxypropoxy)-[1,1′-biphenyl]-4-yl)-2-(2-((S)-1-hydroxyethyl)-1H-imidazol-1-yl)but-3-en-1-ol]",–,2 mg/L,4 mg/L,8 mg/L,0.6 nM,17.4 nM,1.4 nM
"C[C@H](O)c1nccn1[C@@H](/C=C/c1ccc(-c2ccc(OCCN(CCO)CCO)cc2)cc1)CO [Compound 28, 2,2′-((2-((4′—((S,E)-4-hydroxy-3-(2-((S)-1-hydroxyethyl)-1H-imidazol-1-yl)but-1-en-1-yl)-[1,1′-biphenyl]-4-yl)oxy)ethyl)azanediyl)bis(ethan-1-ol)]",4 mg/L,16 mg/L,4 mg/L,4 mg/L,2.6 nM,36.9 nM,4.3 nM
"C[C@H](O)c1nccn1[C@@H](/C=C/c1ccc(-c2ccc(OC[C@H](O)CN)cc2)cc1)CO [Compound 29, (S,E)-4-(4′-((R)-3-amino-2-hydroxypropoxy)-[1,1′-biphenyl]-4-yl)-2-(2-((S)-1-hydroxyethyl)-1H-imidazol-1-yl)but-3-en-1-ol]",32 mg/L,64 mg/L,8 mg/L,4 mg/L,5.9 nM,120 nM,9.1 nM
"C[C@H](O)c1nccn1[C@@H](/C=C/c1ccc(-c2ccc(OC[C@@H](O)CO)cc2F)cc1)CO [Compound 32, (S)-3-((2-fluoro-4′-((S,E)-4-hydroxy-3-(2-((S)-1-hydroxyethyl)-1H-imidazol-1-yl)but-1-en-1-yl)-[1,1′-biphenyl]-4-yl)oxy)propane-1,2-diol]",2 mg/L,8 mg/L,4 mg/L,4 mg/L,1 nM,13.4 nM,1.8 nM
"C[C@H](O)c1nccn1[C@@H](/C=C/c1ccc(-c2ccc(OCC(CO)CO)cc2)cc1)CO [Compound 33, 2-(((4′-((S,E)-4-hydroxy-3-(2-((S)-1-hydroxyethyl)-1H-imidazol-1-yl)but-1-en-1-yl)-[1,1′-biphenyl]-4-yl)oxy)methyl)propane-1,3-diol]",–,8 mg/L,2 mg/L,4 mg/L,1 nM,11.9 nM,1.6 nM
"C[C@H](O)c1nccn1[C@@H](/C=C/c1ccc(-c2ccc(C3CC(NCCC#N)C3)cc2)cc1)CO (stereo partly drawn) [Compound 37, 3-((3-(4′-((S,E)-4-hydroxy-3-(2-((S)-1-hydroxyethyl)-1H-imidazol-1-yl)but-1-en-1-yl)-[1,1′-biphenyl]-4-yl)cyclobutyl)amino)propanenitrile]",–,0.5 mg/L,2 mg/L,4 mg/L,< 0.5 nM,15.2 nM,0.7 nM
"C[C@H](O)c1nccn1[C@@H](/C=C/c1ccc(-c2ccc(C3CC(N4CC(O)C4)C3)cc2)cc1)CO (stereo partly drawn) [Compound 38, 1-(3-(4′-((S,E)-4-hydroxy-3-(2-((S)-1-hydroxyethyl)-1H-imidazol-1-yl)but-1-en-1-yl)-[1,1′-biphenyl]-4-yl)cyclobutyl)azetidin-3-ol]",–,2 mg/L,2 mg/L,2 mg/L,0.9 nM,27.5 nM,1.6 nM
"C[C@H](O)c1nccn1[C@@H](/C=C/c1ccc(-c2ccc(C3CC(O)C3)cc2)cc1)CO (stereo partly drawn) [Compound 39, 3-(4′-((S,E)-4-hydroxy-3-(2-((S)-1-hydroxyethyl)-1H-imidazol-1-yl)but-1-en-1-yl)-[1,1′-biphenyl]-4-yl)cyclobutan-1-ol]",–,0.5 mg/L,1 mg/L,4 mg/L,< 0.5 nM,12.6 nM,0.6 nM
